From US11352371B2, “Thienopyrimidine derivatives as ACC inhibitors and uses thereof” (Gilead Sciences, Inc., priority 2019, dated 2022) come the findings set out here.

The nature of data set [1]: Liver partitioning / plasma PK study with and without rifampicin (pan-OATP inhibitor). The class given is in vivo, cynomolgus monkeys. The procedure: (§1) To further investigate the liver partitioning properties of the compound of Example 1, the compound was co-administered with rifampicin (RIF, pan-OATP inhibitor) in cynomolgus monkeys in vivo and hepatic uptake experiments were performed in monkey hepatocytes in vitro. […] Therefore the coadministration experiments as described below in more detail were conducted to administer Example 1 compound orally (5 mg/kg) in the absence and presence of IV administration of RIF (30 mg/kg).
(§2) To assess the OATP (organic anion transporting polypeptides)-mediated liver specific delivery of the Example 1 compound, plasma pharmacokinetics (PK) was evaluated in cynomolgus monkeys. The in-life phase of the cyno PK studies was conducted at Covance Laboratories (Madison, Wis.). Animals were housed and handled in accordance with the Guide for the Care and Use of Laboratory Animals, Institute of Laboratory Animal Resources. The protocols were reviewed and approved by the Institutional Animal Care and Use Committees (IACUC). Male Cynomolgus monkeys weighing approximately 3 kg were used for the in-life portion of the PK studies. The animals were fasted overnight prior to dosing and up to 4 hours after dosing. The animals were administered with the test compound (Example 1) alone or coadministered with 30 mg/kg rifampicin prior to test compound administration at 5 mg/kg via oral gavage (3 monkeys per group). The aqueous formulation contains dimethyl sulfoxide, kolliphor, labrasol and propylene glycol. Approximately 0.5 mL blood samples were collected from each animal and analyzed for test compound (Example 1) concentrations. For LC-MS/MS analysis, plasma samples were prepared through protein precipitation extraction and analyzed on a Sciex API 5500 LC-MS/MS instrument (Applied Biosystems, Foster City, Calif.). Analyte was eluted on a 1.7 μm 50×2.1 mm Acquity UPLC BEH C18 column (Waters, Milford, Mass.) using mobile phases containing 0.1% formic acid and a linear gradient from 60% to 95% acetonitrile at a flow rate of 800 μL/min. Noncompartmental pharmacokinetic parameters were calculated using Phoenix 32 (Pharsight Corporation, Mountain View, Calif.). […]

In a further data set the test system is OATP. Described as above. Particulars: male, cynomolgus monkey, plasma, with rifampicin 30 mg/kg IV (pan-OATP inhibitor), cynomolgus monkeys, 5 mg/kg oral, Pretreatment with Rifampicin 30 mg/kg. The class given is in vivo, cynomolgus monkeys. The procedure: as §1, §2
Setting [2] is: decrease (↓) with rifampicin pretreatment vs no pretreatment.
Where [3] appears, read: increase (↑) with rifampicin pretreatment vs no pretreatment.
The mark [4] stands for this setting: male, cynomolgus monkey, plasma, cynomolgus monkeys, 5 mg/kg oral, No-Pre-treatment.

By AUC is commonly meant concentration integrated over time. The term CL/F denotes the apparent clearance, not corrected for the fraction that reaches the circulation. The term Cmax denotes the highest concentration seen after dosing. As for `COc1ccccc1[C@H](Cn1c(=O)n(C(C)(C)C(=O)NS(=O)(=O)C2(C)CC2)c(=O)c2c(C)c(-c3ncco3)sc21)O[C@@H]1C[C@H]2CC[C@@H](C1)O2` [Example 1, 2-(1-((R)-2-(((1R,3s,5S)-8-oxabicyclo[3.2.1]octan-3-yl)oxy)-2-(2-methoxyphenyl)ethyl)-5-methyl-6-(oxazol-2-yl)-2,4-dioxo-1,4-dihydrothieno[2,3-d]pyrimidin-3(2H)-yl)-2-methyl-N-((1-methylcyclopropyl)sulfonyl)propanamide], the “plasma exposures with RIF treatment relative to monkeys not treated with RIF” value in data set [1] (5 mg/kg oral, RIF 30 mg/kg IV) is reported as “significantly increased”. In data set [1] (setting [2]), the “CL/F Fold-Change” value was “↓ 299” and the “Vz/F Fold-Change” value is “↓ 165”. Besides, in data set [1] (setting [3]), the “AUC Fold-Change” value was “↑ 165” and the “Cmax Fold-Change” value is “↑ 86”. Also, in data set [1] (setting [4]), the AUC stood at 0.294 µM·h, the apparent clearance CL/F was 44.9 L/h/kg and the Cmax was determined as 0.162 µM. Also, in data set [1] (male, cynomolgus monkey, plasma, cynomolgus monkeys, 5 mg/kg oral, No-Pre-treatment, read-out: Vz/F), the Vd/F amounted to 72.7 L/kg. In the data set on OATP, the exposure (AUC) turned out to be 48.5 µM·h, the CL/F was 0.15 L/h/kg and the Cmax came out at 14 µM. In the data set with OATP (read-out: Vz/F), the Vd/F was found to be 0.44 L/kg.
